Results on seven molecules are retold here after ChEMBL document CHEMBL5214963, “Development of a penetratin-conjugated stapled peptide that inhibits Wnt/β-catenin signaling” (Bioorg Med Chem, 2022).

Calls of active or inactive are those of the source. No cut-off for these calls is given here. *1 amine or outer side, *2 acyl side, *3 side chain or, on linkers, in order; H or OH if unused. Where a SMILES comes first, the peptide text is derived from it. Bridges are numbered along the chain shown (N, C = ends). [ ]: non-standard residue; d: D form. Nle(6-ylidene) = O=C([C@H](CCCC=[*:3])N[*:1])[*:2]; Nle = CCCC[C@H](N)C(=O)O; βAla = NCCC(=O)O

In data set [1] the test system is A549. Put plainly: Cytotoxicity against human A549 cells assessed as cell growth inhibition at 20 uM incubated for 24 hrs by CellTiter-Glo reagent based microplate reader analysis. Format: functional. A general note: ATP-based viability assays read luminescence as a measure of living cells.
The test system of data set [2] is DLD-1. Put plainly: Cytotoxicity against human DLD-1 cells assessed as reduction in cell growth at 20 uM incubated for 24 hrs by CellTiter-Glo reagent based microplate reader analysis. The format is functional.
For data set [3], the system named is A549. Briefly: Cytotoxicity against human A549 cells assessed as cell growth inhibition at 20 uM incubated for 5 days by CellTiter-Glo reagent based microplate reader analysis. Format: functional. The note with it: time 5.0 day.
The subject of data set [4] is DLD-1. Briefly: Cytotoxicity against human DLD-1 cells assessed as cell growth inhibition at 20 uM incubated for 5 days by CellTiter-Glo reagent based microplate reader analysis. The format is functional. The note with it: time 5.0 day.
Data set [5] relates to HEK293. Briefly: Inhibition of Wnt/beta-catenin transactivation signalling in Wnt3a stimulated human HEK293 cells harbouring TCF/LEF luciferase reporter gene assessed as inhibition TCF-beta-catenin complex formation by measuring luminescence level at 0.1 to 20 uM preincubated for 15 hrs followed by recombinant mouse Wnt-3a addition and measured after 5 hrs by luminescence based microplate reader analysis. The note with it: dose 0.1-20 µM, time 20.0 hrs, DDE = dose-dependent effect. Format: cell-based. On the technique in general: In a reporter assay the amount or activity of a reporter protein is the signal.

A short description of data set [6]: Stability of the compound in proteinase K (unknown origin) assessed as remaining parent compound at 100 uM measured after 480 mins by HPLC analysis. The format is ADME. The note with it: read-out: Stability.
Data set [7] relates to HEK293. Put plainly: Inhibition of Wnt/beta-catenin transactivation signalling in Wnt3a stimulated human HEK293 cells harbouring TCF/LEF luciferase reporter gene assessed as inhibition TCF-beta-catenin complex formation by measuring luminescence level at 50 uM preincubated for 15 hrs followed by recombinant mouse Wnt-3a addition and measured after 5 hrs by luminescence based microplate reader analysis. Format: cell-based. The note with it: time 20.0 hrs.

The subject of data set [8] is HEK293. Briefly: Inhibition of Wnt/beta-catenin transactivation signalling in Wnt3a stimulated human HEK293 cells harbouring TCF/LEF luciferase reporter gene assessed as inhibition TCF-beta-catenin complex formation by measuring luminescence level at 20 uM preincubated for 15 hrs followed by recombinant mouse Wnt-3a addition and measured after 5 hrs by luminescence based microplate reader analysis. The format is cell-based. The note with it: time 20.0 hrs.

Regarding `CCCC[C@H](NC(=O)[C@@H]1CCC/C=C\CCC[C@H](NC[C@H](C)NC(=O)[C@H](C)NC(=O)CCNC(=O)[C@H](CCC(N)=O)NC(=O)[C@@H]2CCCN2C(=O)[C@@H]2CCCN2C(=O)[C@H](CCCNC(=N)N)NC(=O)[C@H](CCCNC(=N)N)NC(=O)[C@H](CCCNC(=N)N)NC(=O)[C@H](CCC(N)=O)NC(=O)[C@H](CCCNC(=N)N)NC(=O)[C@H](CCCNC(=N)N)NC(=O)[C@H](CCCCN)NC(=O)[C@H](CCCCN)NC(=O)[C@H](CCCNC(=N)N)NC(=O)CN)C(=O)N[C@@H](CC(C)C)C(=O)N[C@@H](CC(=O)O)C(=O)N[C@@H](Cc2ccc(O)cc2)C(=O)N1)C(=O)N[C@@H](CS)C(=O)N[C@@H](CC(N)=O)C(=O)N[C@@H](Cc1ccc(O)cc1)C(=O)O`, the outcome in the data set on A549 [1] and in the data set with DLD-1 [2] was Active.
As to `CCCC[C@H](NC(=O)[C@@H]1CCC/C=C\CCC[C@H](NC(=O)[C@H](C)NC(=O)[C@H](C)NC(=O)CCNC(=O)[C@H](CCCNC(=N)N)NC(=O)[C@H](CCCNC(=N)N)NC(=O)[C@H](CCCNC(=N)N)NC(=O)[C@H](CCCNC(=N)N)NC(=O)[C@H](CCCNC(=N)N)NC(=O)[C@H](CCCNC(=N)N)NC(=O)[C@H](CCCNC(=N)N)NC(=O)[C@@H](N)CCCNC(=N)N)C(=O)N[C@@H](CC(C)C)C(=O)N[C@@H](CC(=O)O)C(=O)N[C@@H](Cc2ccc(O)cc2)C(=O)N1)C(=O)N[C@@H](CS)C(=O)N[C@@H](CC(N)=O)C(=O)N[C@@H](Cc1ccc(O)cc1)C(=O)O`, the result with A549 [1] and in the data set with DLD-1 [2] was Active.
Consider `CCCC[C@H](NC(=O)[C@@H]1CCC/C=C\CCC[C@H](NC(=O)[C@H](C)NC(=O)[C@H](C)NC(=O)CCNC(=O)[C@H](CCCCN)NC(=O)[C@H](CCCCN)NC(=O)[C@H](Cc2c[nH]c3ccccc23)NC(=O)[C@H](CCCCN)NC(=O)[C@H](CCSC)NC(=O)[C@H](CCCNC(=N)N)NC(=O)[C@H](CCCNC(=N)N)NC(=O)[C@H](CC(N)=O)NC(=O)[C@H](CCC(N)=O)NC(=O)[C@H](Cc2ccccc2)NC(=O)[C@H](Cc2c[nH]c3ccccc23)NC(=O)[C@@H](NC(=O)[C@H](CCCCN)NC(=O)[C@@H](NC(=O)[C@H](CCC(N)=O)NC(=O)[C@@H](N)CCCNC(=N)N)[C@@H](C)CC)[C@@H](C)CC)C(=O)N[C@@H](CC(C)C)C(=O)N[C@@H](CC(=O)O)C(=O)N[C@@H](Cc2ccc(O)cc2)C(=O)N1)C(=O)N[C@@H](CS)C(=O)N[C@@H](CC(N)=O)C(=O)N[C@@H](Cc1ccc(O)cc1)C(=O)O`, for which the outcome in the data set on A549 [1], with DLD-1 [2], in the data set with A549 [3] and with DLD-1 [4] was Active. For the same molecule, in the data set on HEK293 [5], the inhibition entry was “Dde”.
For `CCCC[C@H](NC(=O)[C@@H]1CCC/C=C\CCC[C@H](NC(=O)[C@H](C)NC(=O)[C@H](C)NC(=O)CCN)C(=O)N[C@@H](CC(C)C)C(=O)N[C@@H](CC(=O)O)C(=O)N[C@@H](Cc2ccc(O)cc2)C(=O)N1)C(=O)N[C@@H](CS)C(=O)N[C@@H](CC(N)=O)C(=O)N[C@@H](Cc1ccc(O)cc1)C(=O)O` (H-[βAla]AA[Nle(6-ylidene)]LDY[Nle(6-ylidene)][Nle]CNY-OH; staple (Z) 4-8), the remaining at 8 h, 100 µM in data set [6] was 65%.
Still for that read-out and setting: with `CC(C)C[C@H](NC(=O)[C@H](C)NC(=O)[C@H](C)NC(=O)CCN)C(=O)N[C@@H](CC(C)C)C(=O)N[C@@H](CC(=O)O)C(=O)N[C@@H](Cc1ccc(O)cc1)C(=O)N[C@H](C(=O)N[C@@H](CS)C(=O)N[C@@H](CC(N)=O)C(=O)N[C@@H](Cc1ccc(O)cc1)C(=O)O)[C@@H](C)O` (H-[βAla]AALLDYTCNY-OH) the figure was 0.1%.
Take `O=C(Nc1cccc2cccnc12)c1ccc(N2C(=O)[C@@H]3[C@H](C2=O)[C@@H]2C=C[C@H]3C2)cc1`: the inhibition entry in the data set on HEK293 [7] is “Active”.
Regarding `CC[C@H](C)[C@@H]1NC(=O)[C@@H](NC(=O)[C@H](CCCNC(=N)N)NC(=O)[C@@H]2CCCN2C(=O)[C@H](Cc2c[nH]c3ccccc23)NC(=O)[C@H](CCCNC(=N)N)NC(=O)[C@H](CCCNC(=N)N)NC(C)=O)CCC/C=C\CCC[C@@H](C(=O)N[C@@H](Cc2cnc[nH]2)C(=O)N[C@H](C(=O)N[C@@H](CCCNC(=N)N)C(=O)N[C@@H](CCCNC(=N)N)C(=O)N[C@H](C(=O)N[C@@H](Cc2c[nH]c3ccccc23)C(=O)N[C@@H](CCCNC(=N)N)C(=O)O)C(C)C)C(C)C)NC(=O)[C@H](CC(=O)O)NC(=O)[C@H](CC(C)C)NC1=O` (Ac-RRWPR[Nle(6-ylidene)]ILD[Nle(6-ylidene)]HVRRVWR-OH; staple (Z) 6-10), the outcome with A549 [3] and with DLD-1 [4] was Active. In addition, the inhibition result in the data set with HEK293 [8] is “Active”.
